Consider 2 compounds from the NIST ThermoML archive (doi:10.1021/je3002514).

For the data set the following is noted: Crystal; visual observation.

Numbers after ± are expanded uncertainties.

In the case of `CCCC[N+](C)(CCCC)CCCC.COS(=O)(=O)[O-]` [N,N-dibutyl-N-methyl-1-butanaminium methyl sulfate], the Normal melting temperature stood at 62.0 ± 2 °C.

As for `CCCC[P+](C)(CCCC)CCCC.COS(=O)(=O)[O-]` [tributylmethylphosphonium methyl sulfate], the Normal melting temperature came out at 38.0 ± 2 °C.
